Results: patent US10077209B2, “Glazing unit comprising a hydrophilic layer having an improved scratch resistance” (SAINT-GOBAIN GLASS FRANCE, priority 2013, dated 2018)

Assay: Solubility of bis-urea monomers in diacetone alcohol (DAA)
Format: physicochemical
Settings: solvent diacetone alcohol
Description: Three bis-urea monomers were synthesized from toluene-2,4-diisocyanate (TDI) on the one hand, 6-amino-1-hexanol, 2-amino-1-butanol and 2-aminopropanol on the other hand, all purchased from Aldrich. The TDI was stored at 4° C. with the aim of preventing side reactions. The dichloromethane was obtained from VWR and distilled and dried before use. The table below indicates the No. assigned to each bis-urea in the rest of the example, the starting products for its synthesis, a schematic representation of its formula and its solubility in DAA.

Compound | Solubility in DAA [% by wt.]
Cc1ccc(NC(=O)NCC(C)O)cc1NC(=O)NCC(C)O (stereo not drawn) [Bis-urea1] | 8
CCC(CO)NC(=O)Nc1ccc(C)c(NC(=O)NC(CC)CO)c1 (stereo not drawn) [Bis-urea5] | 2.4
Cc1ccc(NC(=O)NCCCCCCO)cc1NC(=O)NCCCCCCO [Bis-urea4] | 7.5
